Test results published in patent US20020111318A1, “Process for the preparation of non-hygroscopic azithromycin dihydrate” (priority 2001, published 2002).
Blank lines part the entries; values can stand above or below the compound they belong to.

What was measured:
[1] = Moisture uptake of crystals on exposure to ambient atmosphere (hygroscopicity); format: physicochemical
Experimental: 9-Deoxo-9a-aza-9a-homoerythromycin A (73.5 g-0.1 mole) was dissolved in 250 ml acetone. To this solution, formic acid (19 ml) followed by formaldehyde (37%, 20 ml) were added and refluxed for 24 hrs. The pH of the reaction mixture was adjusted with alkali to 10.5 and filtered to remove particles. To the filtered acetone solution equal volume of water was added to precipitate azithromycin hygroscopic monohydrate as cube shaped crystals. The crystals were filtered and dried under vacuum at 50° C. to give 65 g of azithromycin monohydrate melting at 130-131° C. having a water content of 3.42% (by Karl Fischer titration method). This sample of hygroscopic monohydrate has a characteristic solid state (KBr pellet) IR spectrum (FIG. 1) and a characteristic x-ray diffraction pattern (FIG. 4).
10 gms of hygroscopic azithromycin-monohydrate was suspended in a mixture of iso-propanol (10 ml) and water (10 ml) and stirred at ambient temperature. The transformation of cubical crystals of monohydrate form to the rhomboid form crystals of dihydrate was followed by checking the crystal habit under a microscope at every two hour interval. At 16 hours the rhomboid dihydrate crystals only were seen. The slurry was filtered and dried under vacuum at 50° C. to give 9.8 g of azithromycin dihydrate. […] It has a characteristic solid state IR spectrum (KBr pellet) (FIG. 2) and x-ray diffraction pattern (FIG. 3).

[2] = system: gram negative organisms; settings: Dunn and Barradell, Drugs 1996; cited from earlier work

moisture content reached on exposure to ambient atmosphere ([1]; exposure to ambient atmosphere, 48 hrs, water content after drying 3.42% (Karl Fischer)): 5.4%
Compound: CC[C@H]1OC(=O)[C@H](C)[C@@H](O[C@H]2C[C@@](C)(OC)[C@@H](O)[C@H](C)O2)[C@H](C)[C@@H](O[C@@H]2O[C@H](C)C[C@H](N(C)C)[C@H]2O)[C@](C)(O)C[C@@H](C)CN(C)[C@H](C)[C@@H](O)[C@]1(C)O [azithromycin monohydrate, Azithromycin monohydrate]

Compound: CC[C@H]1OC(=O)[C@H](C)[C@@H](O[C@H]2C[C@@](C)(OC)[C@@H](O)[C@H](C)O2)[C@H](C)[C@@H](O[C@@H]2O[C@H](C)C[C@H](N(C)C)[C@H]2O)[C@@](C)(O)C[C@@H](C)CN(C)[C@H](C)[C@@H](O)[C@]1(C)O [Azithromycin, 9-Deoxo-9a-aza-9a-methyl-9a-homo-Eryhromycin A]
activity against gram negative organisms compared to Erythromycin A [2]: significant improvement in its activity

change in moisture content on exposure to ambient atmosphere ([1]; dihydrate crystals dried under vacuum at 50° C., then exposed to ambient atmosphere): no change in the moisture content
Compound: CC[C@H]1OC(=O)[C@H](C)[C@@H](O[C@H]2C[C@@](C)(OC)[C@@H](O)[C@H](C)O2)[C@H](C)[C@@H](O[C@@H]2O[C@H](C)C[C@H](N(C)C)[C@H]2O)[C@](C)(O)C[C@@H](C)CN(C)[C@H](C)[C@@H](O)[C@]1(C)O [azithromycin dihydrate, Azithromycin dihydrate]
